Reference: patent publication US6194437A (Warner-Lambert Company, priority 1999, dated 2001)

Tests used:
[1] = molecular target: T1, cloned human NMB-preferring receptor (BB1) (Homo sapiens, UniProt P28336); assay: Receptor binding assay, cloned human NMB-preferring receptor (BB1), [125I][Tyr4]bombesin displacement; details: CHO-K1 cell membranes, 60 minutes incubation
T1 construct: expressed in transfected cells
Method: (§1) For binding experiments, cells were harvested by trypsinization, and stored frozen at -70° C. in Ham's F12 culture medium containing 5% DMSO until required. On the day of use, cells were thawed rapidly, diluted with an excess of culture medium, and centrifuged for 5 minutes at 2000 g. Cells were resuspended in 50 mM Tris-HCl assay buffer (pH 7.4 at 21° C., containing 0.02% BSA, 40 μg/ml bacitracin, 2 μg/mL chymostatin, 4 μg/mL leupeptin, and 2 μM phosphoramidon), counted, and polytronned (setting 5, 10 sec) before centrifuging for 10 minutes at 28,000 g. The final pellet was resuspended in assay buffer to a final cell concentration of 1.5×10^5 /mL. […] Radioactivity bound was determined using a gamma counter.

[2] = molecular target: T2, cloned human GRP-preferring receptor (BB2) (Homo sapiens, UniProt P30550); assay: Receptor binding assay, cloned human GRP-preferring receptor (BB2), [125I][Tyr4]bombesin displacement; details: CHO-K1 cell membranes, 90 minutes incubation
T2 construct: expressed in transfected cells
Method: as §1, with “The compounds of the invention have been evaluated in receptor binding assays which measure the affinity of the novel compounds in a cloned human NMB-preferring receptor (BB1) assay and in a cloned human GRP-preferring receptor (BB2) assay. Protocol for Binding Assays […] For” for “For”

[3] = molecular target: T3, cloned human NMB-preferring receptors expressed in CHO cells (Homo sapiens, UniProt P28336); assay: Measurement of extracellular acidification (CYTOSENSOR) in CHO-NMB cells; assay type: cell-based; details: NMB-preferring receptor (BB1), antagonist 30 minutes prior to agonist, 37° C.
T3 construct: functional calcium (Fura-2) and Cytosensor acidification assays
Description: The compounds of the invention have been tested in in vitro functional assays using cloned human NMB-preferring receptors expressed in CHO cells.
Protocols for functional assays:
2. Measurement of extracellular acidification (CYTOSENSOR)
This acidification rate is detected as a change in potential across a silicon light addressable sensor, during periods of media cessation (McConnell, et al., 1992).
CHO-NMB Cells seeded on polycarbonate microporous capsule cups were placed insensor chambers at 37° C. inside the microphysiometer, and maintained by a flow of nonbuffering Ham's F12 nutrient media (growth media without NaHCO3, pH 7.3-7.4) at approximately 120 μL/min. The flow was halted for 22 seconds at the end of each 2 minute repeated cycle, and the rate of acidification (μ volts/sec) measured for 15 seconds during that period.
Agonists were introduced sequentially every 28 to 30 minutes to the perfusing media, 20 seconds before flow-off periods, and removed after two rate measurements via the automatic valve-switch.
The effects of various antagonists were determined after continuous perfusion 30 minutes prior to, and throughout the application of agonists. All agents were applied at the working pH of the media.

T1 sequence (P28336 whole entry): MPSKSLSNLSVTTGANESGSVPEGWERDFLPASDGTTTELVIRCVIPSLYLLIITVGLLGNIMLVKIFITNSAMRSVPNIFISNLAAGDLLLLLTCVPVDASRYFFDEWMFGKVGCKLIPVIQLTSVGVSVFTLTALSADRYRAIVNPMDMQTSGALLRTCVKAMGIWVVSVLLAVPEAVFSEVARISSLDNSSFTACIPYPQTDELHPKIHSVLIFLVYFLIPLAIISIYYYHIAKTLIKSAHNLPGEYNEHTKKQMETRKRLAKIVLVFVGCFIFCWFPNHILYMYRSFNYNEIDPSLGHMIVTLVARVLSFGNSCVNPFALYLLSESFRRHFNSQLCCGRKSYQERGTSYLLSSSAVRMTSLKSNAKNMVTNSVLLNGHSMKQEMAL
T2 sequence (P30550 whole entry): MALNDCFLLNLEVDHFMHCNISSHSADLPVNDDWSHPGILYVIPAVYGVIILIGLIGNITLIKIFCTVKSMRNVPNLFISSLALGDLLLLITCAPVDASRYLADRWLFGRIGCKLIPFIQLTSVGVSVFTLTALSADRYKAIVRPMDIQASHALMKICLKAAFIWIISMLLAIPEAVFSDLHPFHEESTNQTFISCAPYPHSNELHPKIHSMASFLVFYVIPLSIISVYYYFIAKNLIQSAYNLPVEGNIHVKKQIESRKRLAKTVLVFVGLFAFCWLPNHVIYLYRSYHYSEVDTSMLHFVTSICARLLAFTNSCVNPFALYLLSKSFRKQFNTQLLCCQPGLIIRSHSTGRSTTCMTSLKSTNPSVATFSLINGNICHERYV
T3 sequence (P28336 whole entry): as the sequence (P28336 whole entry) above

Ki [1]	Ki [2]	Acidification Response appKB [3]	SMILES
215 nM	> 10000 nM	–	CC(C)c1cccc(C(C)C)c1NC(=O)NC(C)(Cc1c[nH]c2ccccc12)C(=O)NCCC1CCCCC1 (stereo not drawn) [Example 4, N-(2-Cyclohexyl-ethyl)-2-[3-(2,6-diisopropyl-phenyl)-ureido]-3-(1H-indol-3-yl)-2-methyl-propionamide]
783 nM	> 10000 nM	–	CC(C)c1cccc(C(C)C)c1NC(=O)N[C@](C)(Cc1c[nH]c2ccccc12)C(=O)N[C@H]1CCCC[C@H]1c1ccccc1 [Example 6, 2-[3-(2,6-Diisopropyl-phenyl)-ureido]-3-(1H-indol-3-yl)-2-methyl-N-(2-phenyl-cyclohexyl)-propionamide]
487 nM	> 10000 nM	–	CC(C)c1cccc(C(C)C)c1NC(=O)NC(Cc1c[nH]c2ccccc12)C(=O)N(C)CC1CCCCC1 (stereo not drawn) [Example 7, N-Cyclohexylmethyl-2-[3-(2,6-diisopropyl-phenyl)-ureido]-3-(1H-indol-3-yl)-N-methyl-propionamide]
103 nM	> 10000 nM	–	CC(C)c1cccc(C(C)C)c1NC(=O)N[C@@](C)(Cc1c[nH]c2ccccc12)C(=O)NCC1CCCCC1 [Example 11, N-Cyclohexylmethyl-2-[3-(2,6-diisopropyl-phenyl)-ureido]-3-(1H-indol-3-yl)-2-methyl-propionamide]
0.3 nM	38 nM	–	C[C@@](Cc1c[nH]c2ccccc12)(NC(=O)Nc1ccc(C#N)cc1)C(=O)NCC1(c2ccccn2)CCCCC1 [Example 13]
3 nM	140 nM	–	CCOC(=O)c1ccc(NC(=O)N[C@@](C)(Cc2c[nH]c3ccccc23)C(=O)NCC2(c3ccccn3)CCCCC2)cc1 [Example 16]
3 nM	762 nM	–	CC(C)c1cccc(C(C)C)c1NC(=O)NC(C)(Cc1cccc[n+]1[O-])C(=O)NCC1(c2ccccn2)CCCCC1 (stereo not drawn) [Example 19, 2-[3-(2,6-Diisopropyl-phenyl)-ureido]-2-methyl-3-(1-oxy-pyridin-2-yl)-N-(1-pyridin-2-yl-cyclohexylmethyl)-propionamide]
33 nM	> 10000 nM	–	CC(C)c1cccc(C(C)C)c1NC(=O)NC(C)(Cc1ccccc1C(F)(F)F)C(=O)NCC1(c2ccccn2)CCCCC1 (stereo not drawn) [Example 20]
20 nM	2550 nM	–	CC(C)c1cccc(C(C)C)c1NC(=O)NC(C)(Cc1ccccc1[N+](=O)[O-])C(=O)NCC1(c2ccccn2)CCCCC1 (stereo not drawn) [Example 21]
16 nM	5360 nM	–	CC(C)c1cccc(C(C)C)c1NC(=O)NC(Cc1c[nH]cn1)C(=O)NCC1(c2ccccn2)CCCCC1 (stereo not drawn) [Example 23]
–	1 nM	–	COc1ccc(C2(CNC(=O)C(C)(Cc3c[nH]c4ccccc34)NC(=O)Nc3ccc([N+](=O)[O-])cc3)CCCCC2)nc1 (stereo not drawn) [Example 27]
0.81 nM	79 nM	–	CN(C)Cc1ccc(C2(CNC(=O)C(C)(Cc3c[nH]c4ccccc34)NC(=O)Nc3ccc([N+](=O)[O-])cc3)CCCCC2)cc1 (stereo not drawn) [Example 28]
0.17 nM	21 nM	–	CC(Cc1c[nH]c2ccccc12)(NC(=O)Nc1ccc([N+](=O)[O-])cc1)C(=O)NCC1(c2c[nH]cn2)CCCCC1 (stereo not drawn) [Example 31]

Further lines, the compound ahead of its results:

SMILES	Ki [1]	Ki [2]	Acidification Response appKB [3]
CC(C)c1cccc(C(C)C)c1NC(=O)NC(C)(Cc1c[nH]c2ccccc12)C(=O)N[C@H]1COC(C)(C)O[C@H]1c1ccccc1 (single isomer, unassigned) [Example 25]	95 nM	–	–
CC(C)c1cccc(C(C)C)c1NC(=O)N[C@](C)(Cc1c[nH]c2ccccc12)C(=O)N[C@H]1CCCc2ccccc21 [Example 2, 2-[3-(2,6-Diisopropyl-phenyl)-ureido]-3-(1H-indol-3-yl)-2-methyl-N-(1,2,3,4-tetrahydro-naphthalen-1-yl)-propionamide]	14 nM	> 10000 nM	54.3
CC(C)c1cccc(C(C)C)c1NC(=O)N[C@](C)(Cc1c[nH]c2ccccc12)C(=O)N[C@H]1CCc2ccccc21 [Example 3, 2-[3-(2,6-Diisopropyl-phenyl)-ureido]-N-indan-1-yl-3-(1H-indol-3-yl)-2-methyl-propionamide]	130 nM	> 10000 nM	–
CC(C)c1cccc(C(C)C)c1NC(=O)NC(C)(Cc1c[nH]c2ccccc12)C(=O)Nc1ccccc1 (stereo not drawn) [Example 5]	942 nM	> 10000 nM	–
CC(Cc1c[nH]c2ccccc12)(NC(=O)Nc1ccc([N+](=O)[O-])cc1)C(=O)NCC1CCCCC1 (stereo not drawn) [Example 8]	3 nM	450 nM	–
CC(Cc1c[nH]c2ccccc12)(NC(=O)Nc1ccc([N+](=O)[O-])cc1)C(=O)NCC1(O)CCCCC1 (stereo not drawn) [Example 9]	3.3 nM	1130 nM	–
CC(C)c1cccc(C(C)C)c1NC(=O)N(C)C(Cc1c[nH]c2ccccc12)C(=O)NCC1CCCCC1 (stereo not drawn) [Example 10, N-Cyclohexylmethyl-2-[3-(2,6-diisopropyl-phenyl)-1-methyl-ureido]-3-(1H-indol-3-yl)-propionamide]	758 nM	1460 nM	–
C[C@H](NC(=O)N[C@@](C)(Cc1c[nH]c2ccccc12)C(=O)NCC1(c2ccccn2)CCCCC1)c1ccc([N+](=O)[O-])cc1 [Example 12]	0.7 nM	60 nM	–
C[C@@](Cc1c[nH]c2ccccc12)(NC(=O)Nc1ccc(C(F)(F)F)cc1)C(=O)NCC1(c2ccccn2)CCCCC1 [Example 15]	2 nM	165 nM	–
COc1cccc(OC)c1NC(=O)NC(C)(Cc1c[nH]c2ccccc12)C(=O)NCC1CCCCC1 (stereo not drawn) [Example 17, N-Cyclohexylmethyl-2-[3-(2,6-dimethoxy-phenyl)ureido]-3-(1H-indol-3-yl)-2-methyl-propionamide]	3310 nM	2940 nM	–
CC(C)c1cccc(C(C)C)c1NC(=O)[C@H](Cc1c[nH]c2ccccc12)NC(=O)NC(c1ccccc1)C(C)(C)C (stereo partly drawn) [Example 18, (S)-N-(2,6-Diisopropyl-phenyl)-2-[3-(2,2-dimethyl-1-phenyl-propyl)-ureido]-3-(1H-indol-3-yl)-propionamide]	25 nM	> 10000 nM	–
CC(C)c1cccc(C(C)C)c1NC(=O)NC(C)(Cc1ccccn1)C(=O)NCC1(c2ccccn2)CCCCC1 (stereo not drawn) [Example 22, 2-[3-(2,6-Diisopropyl-phenyl)-ureido]-2-methyl-3-pyridin-2-yl-N-(1-pyridin-2-yl-cyclohexylmethyl)-propionamide]	35 nM	589 nM	–
CC(C)c1cccc(C(C)C)c1N(C)C(=O)NC(C)(Cc1c[nH]c2ccccc12)C(=O)NCC1CCCCC1 (stereo not drawn) [Example 24]	413 nM	> 10000 nM	–
Cc1nc(C2(CNC(=O)C(C)(Cc3c[nH]c4ccccc34)NC(=O)Nc3ccc([N+](=O)[O-])cc3)CCCCC2)cs1 (stereo not drawn) [Example 26]	0.25 nM	29 nM	–
CC(Cc1c[nH]c2ccccc12)(NC(=O)Nc1ccc([N+](=O)[O-])cc1)C(=O)NCC(c1ccccc1)N1CCCCC1 (stereo not drawn) [Example 29]	10 nM	> 10000 nM	–
COc1ccc(C2(CNC(=O)C(C)(Cc3c[nH]c4ccccc34)NC(=O)Nc3ccc(C#N)cc3)CCCCC2)nc1 (stereo not drawn) [Example 32]	0.17 nM	20 nM	–
